We go through 25 molecules from patent US9255100B2 (BAYER INTELLECTUAL PROPERTY GMBH, priority 2010, dated 2016).

The target in this assay is T1, N-terminally GST-tagged human full length recombinant Mps-1 kinase (Homo sapiens, UniProt P33981).
T1 construct: N-terminally GST-tagged human full length recombinant Mps-1 kinase; purchased Invitrogen, Karslruhe, Germany PV4071
T1 sequence (P33981 1-857): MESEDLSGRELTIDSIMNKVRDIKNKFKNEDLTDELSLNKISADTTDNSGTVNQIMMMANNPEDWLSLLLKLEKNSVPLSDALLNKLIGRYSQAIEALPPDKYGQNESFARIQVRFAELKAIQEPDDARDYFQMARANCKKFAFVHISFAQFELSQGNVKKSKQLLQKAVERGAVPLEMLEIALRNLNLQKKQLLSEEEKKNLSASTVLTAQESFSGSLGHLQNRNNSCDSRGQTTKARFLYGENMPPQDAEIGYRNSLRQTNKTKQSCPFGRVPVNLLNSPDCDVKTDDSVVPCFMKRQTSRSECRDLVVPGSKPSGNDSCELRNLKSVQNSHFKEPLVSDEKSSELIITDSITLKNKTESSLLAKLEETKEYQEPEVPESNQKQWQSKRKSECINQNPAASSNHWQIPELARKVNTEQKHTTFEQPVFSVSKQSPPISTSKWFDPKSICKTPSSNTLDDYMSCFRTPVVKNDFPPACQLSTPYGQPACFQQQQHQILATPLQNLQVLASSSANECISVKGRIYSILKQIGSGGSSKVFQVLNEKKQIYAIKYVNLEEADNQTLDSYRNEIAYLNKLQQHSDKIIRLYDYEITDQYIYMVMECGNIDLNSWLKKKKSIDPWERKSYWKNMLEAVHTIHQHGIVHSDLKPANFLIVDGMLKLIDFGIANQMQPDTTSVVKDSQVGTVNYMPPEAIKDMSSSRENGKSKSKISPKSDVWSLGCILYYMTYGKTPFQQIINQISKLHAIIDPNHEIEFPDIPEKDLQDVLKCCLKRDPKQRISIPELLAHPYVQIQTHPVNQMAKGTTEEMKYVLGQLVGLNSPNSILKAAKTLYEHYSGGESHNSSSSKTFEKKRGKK
Nature of the assay: Mps-1 kinase assay (TR-FRET). It is filed as biochemical. Conditions: Mps1 IC50 [nM], 10 μM ATP, 1 μM peptide substrate, 60 min at 22° C. Summed up:
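Inhibition of Mps-1 (N-terminal GST fusion, full length) toward a biotinylated peptide is read as Eu-to-XLent TR-FRET. Enzyme level, around 1 nM final, follows lot activity.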
As for `Cc1cc(-c2cnc3c(NCCCC(F)(F)F)cc(Nc4cccc(F)c4F)nn23)ccc1C(=O)NC1CC1` [Example 450, N-cyclopropyl-4-{6-[(2,3-difluorophenyl)amino]-8-[(4,4,4-trifluorobutyl)amino]imidazo[1,2-b]pyridazin-3-yl}-2-methylbenzamide], the concentration for half-maximal inhibition (IC50) – broadly, the point on the concentration scale where inhibition reaches its midpoint – came out at 0.3 nM. As to `Cc1cc(-c2cnc3c(NCCC(F)(F)F)cc(Oc4cccc(F)c4)nn23)ccc1C(=O)O` [Example 550, 4-{6-(3-fluorophenoxy)-8-[(3,3,3-trifluoropropyl)amino]imidazo[1,2-b]pyridazin-3-yl}-2-methylbenzoic acid], the half-maximal inhibitory concentration (IC50) worked out at 0.5 nM.

Turning to `CC(C)CNc1cc(-c2cncc3ccccc23)nn2c(-c3ccc(C(=O)NC4CC4)cc3)cnc12` [Example 115, N-cyclopropyl-4-{6-(isoquinolin-4-yl)-8-[(2-methylpropyl)amino]imidazo[1,2-b]pyridazin-3-yl}benzamide], the IC50 came out at 27.5 nM. On to `Cc1cc(-c2cnc3c(NCCC(F)(F)F)cc(Sc4ccc(Cl)cc4CO)nn23)ccc1C(=O)NC1CC1` [Example 392, 4-(6-{[4-chloro-2-(hydroxymethyl)phenyl]sulfanyl}-8-[(3,3,3-trifluoropropyl)amino]imidazo[1,2-b]pyridazin-3-yl)-N-cyclopropyl-2-methylbenzamide], for which the IC50 is 0.4 nM. As for `CCNC(=O)c1ccc(-c2cnc3c(NCC4CCOCC4)cc(Oc4ccccc4C)nn23)cc1C` [Example 596, N-ethyl-2-methyl-4-{6-(2-methylphenoxy)-8-[(tetrahydro-2H-pyran-4-ylmethyl)a-mino]imidazo[1,2-b]pyridazin-3-yl}benzamide], the figure is 1.1 nM; as for `CNC(=O)c1ccc(-c2cnc3c(NCCC(F)(F)F)cc(Oc4cccc(F)c4)nn23)cc1C` [Example 551, 4-{6-(3-fluorophenoxy)-8-[(3,3,3-trifluoropropyl)amino]imidazo[1,2-b]pyridazin-3-yl}-N,2-dimethylbenzamide], 0.2 nM; as for `Cc1cc(-c2cnc3c(NCC(C)(C)O)cc(Oc4ccc(F)c(F)c4)nn23)ccc1C(=O)NC1CC1` [Example 254, N-cyclopropyl-4-{6-(3,4-difluorophenoxy)-8-[(2-hydroxy-2-methylpropyl)amino]imidazo[1,2-b]pyridazin-3-yl}-2-methylbenzamide], 0.1 nM. As for `Cc1cc(-c2cnc3c(NCCC(F)(F)F)cc(Nc4ccc(CCO)cc4)nn23)ccc1C(=O)NC1CC1` [Example 427, N-cyclopropyl-4-(6-{[4-(2-hydroxyethyl)phenyl]amino}-8-[(3,3,3-trifluoropropyl)amino]imidazo[1,2-b]pyridazin-3-yl)-2-methylbenzamide], the figure is 0.2 nM. On to `Cc1cc(-c2cnc3c(NCCC(F)(F)F)cc([S+]([O-])c4cccc(F)c4)nn23)ccc1C(=O)NC1CC1` (racemic) [Example 83B, (RS)—N-cyclopropyl-4-{6-[(3-fluorophenyl)sulfinyl]-8-[(3,3,3-trifluoropropyl)amino]imidazo[1,2-b]pyridazin-3-yl}-2-methylbenzamide], for which the 50% inhibitory concentration (IC50) was determined as 0.8 nM. Next, `Cc1cc(-c2cnc3c(NCCC(F)(F)F)cc(Oc4ccc(F)cc4)nn23)ccc1C(=O)NC1CC1` [Example 472, N-cyclopropyl-4-{6-(4-fluorophenoxy)-8-[(3,3,3-trifluoropropyl)amino]imidazo[1,2-b]pyridazin-3-yl}-2-methyl-benzamide]: 0.2 nM; `Cc1cc(-c2cnc3c(NCC4CCS(=O)(=O)CC4)cc(Sc4cccc(F)c4)nn23)ccc1C(=O)NC1CC1` [Example 301, N-cyclopropyl-4-(8-{[(1,1-dioxidotetrahydro-2H-thiopyran-4-yl)methyl]amino}-6-[(3-fluorophenyl)sulfanyl]imidazo[1,2-b]pyridazin-3-yl)-2-methylbenzamide]: 0.2 nM; `Cc1cc(-c2cnc3c(NCC(C)C)cc(-c4ccnn4C)nn23)ccc1C(=O)NC1CC1` [Example 202, N-cyclopropyl-2-methyl-4-{8-[(2-methylpropyl)amino]-6-(1-methyl-1H-pyrazol-5-yl)imidazo[1,2-b]pyridazin-3-yl}benzamide]: 1.5 nM. For `CC(C)CNc1cc(Cl)nn2c(-c3ccc(-c4cnc(C5CC5)[nH]4)cc3)cnc12` [Example 184, 6-Chloro-3-[4-(2-cyclopropyl-1H-imidazol-5-yl)phenyl]-N-(2-methylpropyl)imidazo[1,2-b]pyridazin-8-amine], the half-maximal inhibitory concentration (IC50) was found to be 101 nM. In the case of `Cc1cc(-c2cnc3c(NCC(C)(C)O)cc(Nc4ccncc4)nn23)ccc1C(=O)NC1CC1` [Example 365, N-cyclopropyl-4-{8-[(2-hydroxy-2-methylpropyl)amino]-6-(pyridin-4-ylamino)imidazo[1,2-b]pyridazin-3-yl}-2-methylbenzamide], the IC50 was 4.4 nM. As for `Cc1cc(-c2cnc3c(NCCC(F)(F)F)cc(Sc4cc(F)cc(F)c4)nn23)ccc1C(=O)NC1CC1` [Example 251, N-cyclopropyl-4-{6-[(3,5-difluorophenyl)sulfanyl]-8-[(3,3,3-trifluoropropyl)amino]imidazo[1,2-b]pyridazin-3-yl}-2-methylbenzamide], the figure is 0.2 nM. As for `CC(=O)NCCNc1cc(Oc2cccc(F)c2)nn2c(-c3ccc(C(=O)NC4CC4)c(C)c3)cnc12` [Example 504, 4-[8-{[2-(acetylamino)ethyl]amino}-6-(3-fluorophenoxy)imidazo[1,2-b]pyridazin-3-yl]-N-cyclopropyl-2-methyl-benzamide], the figure is 0.2 nM. Next, `CSc1cc(NCC(C)(C)O)c2ncc(-c3ccc(C(=O)NC4CC4)c(C)c3)n2n1` [Example 15, N-cyclopropyl-4-{8-[(2-hydroxy-2-methylpropyl)amino]-6-(methylsulfanyl)imidazo[1,2-b]pyridazin-3-yl}-2-methylbenzamide]: 21.5 nM; `NS(=O)(=O)CCNc1cc(Cl)nn2c(-c3ccc(C(=O)NC4CC4)cc3)cnc12` [Example 98, 4-{6-Chloro-8-[(2-sulfamoylethyl)amino]imidazo[1,2-b]pyridazin-3-yl}-N-cyclopropylbenzamide]: 52.3 nM.

With `CCNC(=O)c1ccc(-c2cnc3c(NCC4CCOCC4)cc(Oc4ccc(OC)cc4)nn23)cc1C` [Example 597, N-ethyl-4-{6-(4-methoxyphenoxy)-8-[(tetrahydro-2H-pyran-4-ylmethyl)a-mino]imidazo[1,2-b]pyridazin-3-yl}-2-methylbenzamide], the concentration for half-maximal inhibition (IC50) is 1.1 nM.

`CC(C)CNc1cc(-c2ccc(S(C)(=O)=O)cc2)nn2c(-c3ccc(C(=O)NC4CC4)cc3)cnc12` [Example 142, N-cyclopropyl-4-{8-[(2-methylpropyl)amino]-6-[4-(methylsulfonyl)phenyl]imidazo[1,2-b]pyridazin-3-yl}benzamide]: the IC50 amounted to 1.4 nM.

Turning to `CC(C)CNc1cc(-c2ccc3[nH]c(=O)[nH]c3c2)nn2c(-c3ccc(C(=O)NC4CC4)cc3)cnc12` [Example 151, N-cyclopropyl-4-{8-[(2-methylpropyl)amino]-6-(2-oxo-2,3-dihydro-1H-benzimidazol-5-yl)imidazo[1,2-b]pyridazin-3-yl}benzamide], the IC50 was 3.1 nM. Consider `COc1ccc(Sc2cc(NCCC(F)(F)F)c3ncc(-c4ccc(C(=O)NC5CC5)c(C)c4)n3n2)cc1` [Example 227, N-cyclopropyl-4-{6-[(4-methoxyphenyl)sulfanyl]-8-[(3,3,3-trifluoropropyl)amino]imidazo[1,2-b]pyridazin-3-yl}-2-methylbenzamide], for which the half-maximal inhibitory concentration (IC50) was found to be 0.2 nM. As to `Cc1cc(-c2cnc3c(NCCC(F)(F)F)cc(Nc4ccccc4)nn23)ccc1C(=O)NC1CC1` [Example 368, 4-{6-anilino-8-[(3,3,3-trifluoropropyl)amino]imidazo[1,2-b]pyridazin-3-yl}-N-cyclopropyl-2-methylbenzamide], the 50% inhibitory concentration (IC50) came to 0.1 nM.

For `Cc1cc(-c2cnc3c(NCC(C)(C)O)cc(Nc4ccccc4F)nn23)ccc1C(=O)NC1CC1` [Example 384, N-cyclopropyl-4-{6-[(2-fluorophenyl)amino]-8-[(2-hydroxy-2-methylpropyl)amino]imidazo[1,2-b]pyridazin-3-yl}-2-methylbenzamide], the IC50 is 0.4 nM. For the molecule `Cc1cc(-c2cnc3c(NCC(C)(C)O)cc(-c4cncnc4)nn23)ccc1C(=O)NC1CC1` [Example 163, N-cyclopropyl-4-{8-[(2-hydroxy-2-methylpropyl)amino]-6-(pyrimidin-5-yl)imidazo[1,2-b]pyridazin-3-yl}-2-methylbenzamide], the IC50 was 30.5 nM.
